Key:
[1] = test system: spontaneous hypertensive rats; assay: Arterial pressure in spontaneous hypertensive rats after seven days of gavage, with intravenous phenylephrine challenge; format: in vivo, rat
Protocol: An in vivo investigation of anti-hypertension efficacy following co-administration of DGLA and aspirin in spontaneous hypertensive rats was conducted. This experiment investigated the efficacy of DGLA when co-administered chronically with aspirin to reduce the hypertensive response induced acutely by phenylephrine in spontaneous hypertensive rats. Spontaneously hypertensive adult male rats (250-300 g), bred by Charles River Laboratories, were used for this assay. […] The animals were pair-housed by group (low dose+aspirin, high dose+aspirin or aspirin alone) for the duration of the oral gavage prior to surgery.
The test article was formulated using olive oil as the vehicle. This stock solution was then administered by oral gavage once per day for seven consecutive days. A low and a high dose (50 mg/kg and 500 mg/kg) were tested.
A 5 mg/ml stock solution of aspirin was prepared by dissolving the appropriate amount of aspirin in 100% DMSO which was then diluted in water. The concentration of DMSO was less than 1%. The appropriate volume was administered by oral gavage to each animal once per day for seven consecutive days. The stock solution was stored at room temperature and was considered stable for the duration of the gavage.
The appropriate volume was administered to each animal by an intravenous injection at the end of the experiment on the surgery day. The stock solution was stored at 4° C. and was considered stable for the duration of the experiment.
Male spontaneous hypertensive rats weighing approximately 300 g arrived at the facility at least two days before beginning the oral gavage. Animals were assigned to one of three groups (low dose+aspirin, high dose+aspirin, and aspirin), and were pair-housed during the acclimation period. […]
Rats were anesthetized with a 2.5-3.0% isoflurane-O2 mixture in an induction box. […] Blood pressure, systemic arterial pressure (SAP), and heart rate were monitored continuously for a total of half an hour. Hypertension was detected as an increase in diastolic, systolic or mean blood pressure. […]

[2] = set-up: species or system human; details: in vivo, po
Protocol: A single-center, double-blind, randomized, placebo-controlled, two part Phase one study was performed in healthy male and female subjects aged 18 to 45 years inclusive. The primary objective of this study was to assess the safety and plasma pharmacokinetics (PK) of orally administered single doses and orally administered multiple doses of DS107G capsules (once daily for 28 days) in healthy subjects.
Subjects were randomly assigned in a 3:1 ratio of DG107G to placebo by block randomization. Single dose part one of the study comprised three cohorts of eight subjects each, with the addition of Cohort four based on evaluation of the safety data of Cohort three by the Safety Monitoring Committee (SMC). A single oral dose of DS107G or matching placebo was administered to fasted subjects in Cohorts one to three (500, 1000, and 2000 mg, respectively) in parallel; subjects in Cohort four were administered a dose of 4000 mg following completion of Cohort three. Subjects in Cohort two received 1000 mg or matching placebo in the fed state at ≥14 days after the first dose.
Safety assessments were monitored throughout the study.
In Part one of the study, subjects in Cohorts one to three were administered a single dose of study drug (either 500-, 1000-, or 2000-mg as 500-mg DS107G capsules or matching placebo capsules) in parallel on study Day 1 after at least an 8-hour fast, according to Table 20. Cohort 4 was initiated following the review of safety data from Cohort 3 by the SMC.

COc1ccccc1OCCNCC(O)COc1cccc2[nH]c3ccccc3c12 (stereo not drawn) [Carvedilol, carvedilol]
Effect on mean systemic arterial pressure when added after phenylephrine ([1]; 0.1 mg/kg i.v., aspirin-fed rats): significant decrease

CCCCC[C@H](O)/C=C/C=C\C/C=C\CCCCCCC(=O)O [Batch 15-HETrE, 15-Hydroxyeicosatrienoic acid]
Free 15-HETrE plasma concentration [2]: < 100 ng/mL

CC(=O)Oc1ccccc1C(=O)O [Aspirin, aspirin]
Mean arterial pressure, Average SAP ([1]; Aspirin gavage 7 days, phenylephrine 20 μg/kg iv): 174.3

From US20190175534A1, “PHARMACEUTICAL COMPOSITIONS COMPRISING DGLA AND USE OF SAME” (DS Biopharma Limited, priority 2016, published 2019)
